pIC50: −log10 of the molar value.
What was measured:
Type in all cases: functional, cell-based
HeLa = test: Cytotoxicity against human HeLa cells assessed as reduction in cell viability incubated for 48 hrs by MTT assay
SMMC-7721 = test: Cytotoxicity against human SMMC-7721 cells assessed as reduction in cell viability incubated for 48 hrs by MTT assay; conditions: SMMC-7721, 48 h
HepG2 = test: Cytotoxicity against human HepG2 cells assessed as reduction in cell viability incubated for 48 hrs by MTT assay; conditions: HepG2, 48 h
HL-60 = test: Cytotoxicity against human HL-60 cells assessed as reduction in cell viability incubated for 48 hrs by MTT assay; conditions: HL-60, 48 h

SMILES	pIC50 (HeLa)	pIC50 (SMMC-7721)	pIC50 (HepG2)	pIC50 (HL-60)
NCCCCCC(=O)Nc1cccc([As]2SCCCS2)c1	< 5.00	< 5.00	5.26	5.82
NCCCCCC(=O)Nc1ccccc1[As]1SCCCS1	< 5.00	< 5.00	5.07	5.79
NCCCCCC(=O)Nc1ccc([As]2SCCCS2)cc1	< 5.00	< 5.00	5.27	5.90
